Values after ≈ are worked out from the molar mass of the structure shown.
Tests used:
Staphylococcus aureus [1] = assay: Antibacterial activity against methicillin-resistant Staphylococcus aureus; format: functional
[2] = Cytotoxicity against mouse fibroblast cells assessed as cell viability at […] (reference value: 90.23 %); format: toxicity, cell-based; set-up: dose or concentration left out as unconfirmed; conditions: read-out: Activity
Escherichia coli = assay: Antimicrobial activity against Escherichia coli by serial dilution method; format: functional
Pseudomonas aeruginosa = assay: Antimicrobial activity against Pseudomonas aeruginosa by serial dilution method; format: functional
Listeria monocytogenes = assay: Antimicrobial activity against Listeria monocytogenes by serial dilution method; format: functional
Candida albicans = assay: Antimicrobial activity against Candida albicans by serial dilution method; format: functional
Shigella flexneri = assay: Antimicrobial activity against Shigella flexneri by serial dilution method; format: functional
Salmonella typhi = assay: Antimicrobial activity against Salmonella typhi by serial dilution method; format: functional, Salmonella enterica subsp. enterica serovar Typhi; conditions: Salmonella enterica
Bacillus cereus = assay: Antimicrobial activity against Bacillus cereus by serial dilution method; format: functional
Staphylococcus aureus [3] = assay: Antimicrobial activity against Staphylococcus aureus by serial dilution method; format: functional

**Q.** Which MIC (Staphylococcus aureus [1]) does the source give for `CC(=O)/C(=C\c1cn(CC(=O)N2CCCCC2)c2ccccc12)n1c([N+](=O)[O-])cnc1C` here?
**A.** 1 µg/mL (≈ 2.3 µM)

**Q.** With `CCOC(=O)C1(C(=O)OCC)C[C@@H](c2c[nH]c3ccccc23)O[C@H]1c1cn(-c2ccccc2)nc1-c1ccccc1` as the molecule, how does the viability [2] read?
**A.** 93.2%

**Q.** Which viability [2] does the source give for `CCOC(=O)C1(C(=O)OCC)C[C@@H](c2c[nH]c3ccc(Cl)cc23)O[C@H]1c1cn(-c2ccccc2)nc1-c1ccc(OC)cc1` here?
**A.** 91.4%

**Q.** For `CCOC(=O)C1(C(=O)OCC)C[C@@H](c2c[nH]c3ccc(Cl)cc23)O[C@H]1c1cn(-c2ccccc2)nc1-c1ccccc1`, which viability [2] is on record?
**A.** 94.3%

**Q.** With `CCOC(=O)C1(C(=O)OCC)C[C@@H](c2c[nH]c3ccc(Cl)cc23)O[C@H]1c1cn(-c2ccccc2)nc1-c1ccc(C)cc1` as the molecule, how does the viability [2] read?
**A.** 97.6%

**Q.** With `CCOC(=O)C1(C(=O)OCC)C[C@@H](c2c[nH]c3ccc(C)cc23)O[C@H]1c1cn(-c2ccccc2)nc1-c1ccc(OC)cc1` as the molecule, how does the viability [2] read?
**A.** 93.5%

**Q.** For `CCOC(=O)C1(C(=O)OCC)C[C@@H](c2c[nH]c3ccccc23)O[C@H]1c1cn(-c2ccccc2)nc1-c1ccc(F)cc1`, which viability [2] is on record?
**A.** 99.1%

**Q.** With `CCOC(=O)C1(C(=O)OCC)C[C@@H](c2c[nH]c3ccc(Cl)cc23)O[C@H]1c1cn(-c2ccccc2)nc1-c1ccc(Cl)cc1` as the molecule, how does the viability [2] read?
**A.** 95.2%

**Q.** Which viability [2] does the source give for `CCOC(=O)C1(C(=O)OCC)C[C@@H](c2c[nH]c3ccc(F)cc23)O[C@H]1c1cn(-c2ccccc2)nc1-c1ccc(F)cc1` here?
**A.** 96.2%

**Q.** Which viability [2] does the source give for `CCOC(=O)C1(C(=O)OCC)C[C@@H](c2c[nH]c3ccc(F)cc23)O[C@H]1c1cn(-c2ccccc2)nc1-c1ccccc1` here?
**A.** 95.7%

**Q.** With `CCOC(=O)C1(C(=O)OCC)C[C@@H](c2c[nH]c3ccccc23)O[C@@H]1c1cn(-c2ccccc2)nc1-c1ccc(Cl)cc1` as the molecule, how does the MIC (Escherichia coli) read?
**A.** 6.25 µg/mL (≈ 10.7 µM)

**Q.** And the MIC (Pseudomonas aeruginosa)?
**A.** 3.12 µg/mL (≈ 5.35 µM)

**Q.** What about the MIC (Listeria monocytogenes) of the same molecule?
**A.** 12.5 µg/mL (≈ 21.4 µM)

**Q.** And the MIC (Candida albicans)?
**A.** 12.5 µg/mL (≈ 21.4 µM)

**Q.** What about the MIC (Shigella flexneri) of the same molecule?
**A.** 12.5 µg/mL (≈ 21.4 µM)

**Q.** And the MIC (Salmonella typhi)?
**A.** 6.25 µg/mL (≈ 10.7 µM)

**Q.** And the MIC (Bacillus cereus)?
**A.** 6.25 µg/mL (≈ 10.7 µM)

**Q.** And the MIC (Staphylococcus aureus [3])?
**A.** 6.25 µg/mL (≈ 10.7 µM)

**Q.** With `CCOC(=O)C1(C(=O)OCC)C[C@@H](c2c[nH]c3ccc(C)cc23)O[C@H]1c1cn(-c2ccccc2)nc1-c1ccccc1` as the molecule, how does the viability [2] read?
**A.** 92.3%

**Q.** What does the source list for `CCOC(=O)C1(C(=O)OCC)C[C@@H](c2c[nH]c3ccccc23)O[C@H]1c1cn(-c2ccccc2)nc1-c1ccc(Cl)cc1`?
**A.** MIC (Escherichia coli): 3.12 µg/mL (≈ 5.35 µM); MIC (Pseudomonas aeruginosa): 1.56 µg/mL (≈ 2.67 µM); MIC (Listeria monocytogenes): 1.56 µg/mL (≈ 2.67 µM); viability [2]: 98.1%; MIC (Candida albicans): 12.5 µg/mL (≈ 21.4 µM); MIC (Shigella flexneri): 6.25 µg/mL (≈ 10.7 µM); MIC (Salmonella typhi): 1.56 µg/mL (≈ 2.67 µM); MIC (Bacillus cereus): 1.56 µg/mL (≈ 2.67 µM); MIC (Staphylococcus aureus [3]): 1.56 µg/mL (≈ 2.67 µM)

**Q.** For `CCOC(=O)C1(C(=O)OCC)C[C@@H](c2c[nH]c3ccc(OC)cc23)O[C@H]1c1cn(-c2ccccc2)nc1-c1ccc(Cl)cc1`, which viability [2] is on record?
**A.** 88.8%

**Q.** With `CCOC(=O)C1(C(=O)OCC)C[C@@H](c2c[nH]c3ccc(F)cc23)O[C@H]1c1cn(-c2ccccc2)nc1-c1ccc(C)cc1` as the molecule, how does the viability [2] read?
**A.** 96.5%

**Q.** Which viability [2] does the source give for `CCOC(=O)C1(C(=O)OCC)C[C@@H](c2c[nH]c3ccc(OC)cc23)O[C@H]1c1cn(-c2ccccc2)nc1-c1ccc(F)cc1` here?
**A.** 94.8%

**Q.** For `CCOC(=O)C1(C(=O)OCC)C[C@@H](c2c[nH]c3ccc(OC)cc23)O[C@H]1c1cn(-c2ccccc2)nc1-c1ccc(C)cc1`, which viability [2] is on record?
**A.** 88.9%

**Q.** With `CCOC(=O)C1(C(=O)OCC)C[C@@H](c2c[nH]c3ccccc23)O[C@H]1c1cn(-c2ccccc2)nc1-c1ccc(C)cc1` as the molecule, how does the viability [2] read?
**A.** 95.3%

**Q.** Which viability [2] does the source give for `CCOC(=O)C1(C(=O)OCC)C[C@@H](c2c[nH]c3ccccc23)O[C@H]1c1cn(-c2ccccc2)nc1-c1ccc(OC)cc1` here?
**A.** 94.3%

**Q.** Which viability [2] does the source give for `CCOC(=O)C1(C(=O)OCC)C[C@@H](c2c[nH]c3ccc(F)cc23)O[C@H]1c1cn(-c2ccccc2)nc1-c1ccc(OC)cc1` here?
**A.** 94.6%

**Q.** Which viability [2] does the source give for `CCOC(=O)C1(C(=O)OCC)C[C@@H](c2c[nH]c3ccc(C)cc23)O[C@H]1c1cn(-c2ccccc2)nc1-c1ccc(F)cc1` here?
**A.** 99.2%

**Q.** With `CCOC(=O)C1(C(=O)OCC)C[C@@H](c2c[nH]c3ccc(C)cc23)O[C@H]1c1cn(-c2ccccc2)nc1-c1ccc(C)cc1` as the molecule, how does the viability [2] read?
**A.** 94.2%

**Q.** With `CCOC(=O)C1(C(=O)OCC)C[C@@H](c2c[nH]c3ccc(OC)cc23)O[C@H]1c1cn(-c2ccccc2)nc1-c1ccccc1` as the molecule, how does the viability [2] read?
**A.** 90.1%

**Q.** With `CCOC(=O)C1(C(=O)OCC)C[C@@H](c2c[nH]c3ccc(F)cc23)O[C@H]1c1cn(-c2ccccc2)nc1-c1ccc(Cl)cc1` as the molecule, how does the viability [2] read?
**A.** 99.1%

**Q.** With `CCOC(=O)C1(C(=O)OCC)C[C@@H](c2c[nH]c3ccc(Cl)cc23)O[C@H]1c1cn(-c2ccccc2)nc1-c1ccc(F)cc1` as the molecule, how does the viability [2] read?
**A.** 90.5%

**Q.** With `CCOC(=O)C1(C(=O)OCC)C[C@@H](c2c[nH]c3ccc(OC)cc23)O[C@H]1c1cn(-c2ccccc2)nc1-c1ccc(OC)cc1` as the molecule, how does the viability [2] read?
**A.** 90.1%

**Q.** With `CCOC(=O)C1(C(=O)OCC)C[C@@H](c2c[nH]c3ccc(C)cc23)O[C@H]1c1cn(-c2ccccc2)nc1-c1ccc(Cl)cc1` as the molecule, how does the viability [2] read?
**A.** 92.3%

**Q.** Which MIC (Staphylococcus aureus [1]) does the source give for `Clc1cccc(-n2nc(C3CCNCC3)cc2/C=C/c2c[nH]c3ccc(Cl)cc23)c1` here?
**A.** 1 µg/mL (≈ 2.29 µM)

**Q.** Which MIC (Escherichia coli) does the source give for `CC1(C)S[C@@H]2[C@H](NC(=O)[C@H](N)c3ccc(O)cc3)C(=O)N2[C@H]1C(=O)O` [AMOXICILLIN] here?
**A.** 3.12 µg/mL (≈ 8.55 µM)

**Q.** And the MIC (Pseudomonas aeruginosa)?
**A.** 3.12 µg/mL (≈ 8.55 µM)

**Q.** What about the MIC (Listeria monocytogenes) of the same molecule?
**A.** 3.12 µg/mL (≈ 8.55 µM)

**Q.** And the MIC (Candida albicans)?
**A.** 6.25 µg/mL (≈ 17.1 µM)

**Q.** And the MIC (Shigella flexneri)?
**A.** 3.12 µg/mL (≈ 8.55 µM)

**Q.** What about the MIC (Salmonella typhi) of the same molecule?
**A.** 3.12 µg/mL (≈ 8.55 µM)

**Q.** What about the MIC (Bacillus cereus) of the same molecule?
**A.** 3.12 µg/mL (≈ 8.55 µM)

**Q.** And the MIC (Staphylococcus aureus [3])?
**A.** 3.12 µg/mL (≈ 8.55 µM)

**Q.** For `OC(Cn1cncn1)(Cn1cncn1)c1ccc(F)cc1F` [FLUCONAZOLE], which MIC (Candida albicans) is on record?
**A.** 6.25 µg/mL (≈ 20.4 µM)
